Test results from article PMC10247784, “Physiological activation of human and mouse bitter taste receptors by bile acids” (Communications Biology, 2023).

Molecular target: T1, mouse Tas2r108 (Mus musculus, UniProt Q9JKT3)
T1 construct: expressed in transfected cells; host or cells: HEK293T-Gα16gust44
T1 sequence (Q9JKT3 1-297): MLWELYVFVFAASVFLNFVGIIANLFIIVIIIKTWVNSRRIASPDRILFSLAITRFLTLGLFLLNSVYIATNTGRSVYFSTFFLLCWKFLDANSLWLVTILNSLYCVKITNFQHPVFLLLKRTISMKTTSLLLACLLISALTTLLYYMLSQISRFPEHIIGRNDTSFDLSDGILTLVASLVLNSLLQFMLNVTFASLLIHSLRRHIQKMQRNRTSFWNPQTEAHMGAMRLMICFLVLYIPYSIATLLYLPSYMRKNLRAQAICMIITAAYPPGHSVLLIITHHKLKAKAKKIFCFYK
Assay: Calcium imaging assay (FLIPR), HEK293T-Gα16gust44 cells transfected with mouse Tas2r108
Assay type: cell-based
Protocol: This set of bile acids was chosen because of their commercial availability in high purities, their diversity within the class of bile acids and their previous detection and quantitation in human blood. Stock solutions were prepared in DMSO.
As basal growth medium for the HEK293T-Gα16gust44 cell line[17],[59] served Dulbecco’s modified eagle medium (DMEM) (Thermo Fisher Scientific, Darmstadt, Germany) supplemented with 10 % fetal bovine serum (Sigma-Aldrich, Steinheim, Germany), 2 mM L-glutamine (Sigma-Aldrich, Steinheim, Germany), 100 units/ml penicillin (Sigma Aldrich, Steinheim, Germany) and 100 µg/ml streptomycin (Sigma Aldrich, Steinheim, Germany). Growth conditions were 37 °C, 5 % CO2 and saturated air-humidity[60].
HEK293T-Gα16gust44 cells were seeded on poly-D-lysine (10 µg/ml) coated 96-well plates to reach a confluence of 40-60 % the next day. For transient transfection 150 ng of plasmid DNA containing the receptor of interest and 0.3 µl lipofectamine 2000 (Thermo Fisher Scientific, Darmstadt, Germany) per well were used and transfection took place according to the manual of lipofectamine 2000. […] The empty vector DNA (mock) was transfected as negative control[14],[41].
Cells were loaded using the calcium-sensitive fluorescent dye Fluo-4-AM (Abcam, Cambridge, Great Britain) in the presence of 2.5 mM probenecid (Sigma-Aldrich, Steinheim, Germany) the day after transfection[13],[41]. 1 h after loading, cells were washed with C1 buffer using a BioTek Cell Washer, incubated in the dark for half an hour and washed again. For automated agonist application and measurement of fluorescence changes, a FLIPR^TETRA device (Molecular Devices, San José, United States) was used. Viability of cells was tested by application of 100 nM Somatostatin 14 (Bachem, Bubendorf, Switzerland)[42].
Measured data were negative control corrected by subtracting the signal of the mock-transfected cells and exported to Microsoft Excel using the FLIPR software ScreenWorks 4.2. In Microsoft Excel software, standardization of maximum fluorescence intensities to the basal fluorescence and normalization to the buffer-only control was done to calculate the relative fluorescence changes (ΔF/F).
Initial screening experiments performed in duplicate wells were confirmed by at least one replication and representative traces were selected for display. All dose-response relationships were determined by three independent experiments (biological replicates) performed in duplicates (technical replicates). Threshold concentrations, defined as lowest substance concentrations leading to statistically significant elevated fluorescence changes in receptor-transfected cells compared with empty vector-transfected cells, were determined using SigmaPlot with Student’s t-test to evaluate statistical significance (p < 0.01).

## C[C@H](CCC(=O)O)[C@H]1CC[C@H]2[C@@H]3[C@H](O)C[C@@H]4C[C@H](O)CC[C@]4(C)[C@H]3C[C@H](O)[C@]12C [Cholic Acid, cholic acid]
Time 0 s
  RLU: 0 RLU
Time 2 s
  RLU: 6.931 RLU
Time 4 s
  RLU: 8.7879 RLU
Time 6 s
  RLU: 7.879 RLU
Time 8 s
  RLU: 1.863 RLU
Time 12 s
  RLU: 5.906 RLU
Time 14 s
  RLU: 3.861 RLU
Time 16 s
  RLU: 1.935 RLU
Time 18 s
  RLU: -12.1137 RLU
Time 137.562 s
  RLU: 234.064 RLU
Time 143.562 s
  RLU: 197.377 RLU
Time 149.562 s
  RLU: 197.423 RLU
Time 155.562 s
  RLU: 210.935 RLU
Time 161.562 s
  RLU: 218.751 RLU
Time 167.562 s
  RLU: 184.375 RLU
Time 173.562 s
  RLU: 173.738 RLU
Time 179.562 s
  RLU: 175.807 RLU
Time 185.562 s
  RLU: 185.91 RLU
Time 191.562 s
  RLU: 162.947 RLU
Time 197.562 s
  RLU: 167.018 RLU
Time 203.562 s
  RLU: 164.056 RLU
Time 209.562 s
  RLU: 161.279 RLU
Time 215.562 s
  RLU: 154.776 RLU
Time 221.562 s
  RLU: 158.451 RLU
Time 227.562 s
  RLU: 139.492 RLU
Time 233.562 s
  RLU: 152.204 RLU
Time 239.562 s
  RLU: 73.7327 RLU
Time 245.562 s
  RLU: 142.097 RLU
Time 293.562 s
  RLU: 160.558 RLU
Time 299.562 s
  RLU: 159.088 RLU
Time 305.562 s
  RLU: 175.817 RLU
Time 311.562 s
  RLU: 159.088 RLU
Time 317.562 s
  RLU: 162.782 RLU
Time 323.562 s
  RLU: 182.257 RLU
Time 329.562 s
  RLU: 162.985 RLU
Time 335.562 s
  RLU: 195.196 RLU
Time 341.562 s
  RLU: 184.414 RLU
Time 347.562 s
  RLU: 175.395 RLU
Time 353.562 s
  RLU: 161.041 RLU
Time 359.562 s
  RLU: 176.226 RLU
P < 0.01 vs empty vector
  Activation threshold concentration Tas2r108: 100 µM
Time 18.797 s
  RLU: 17.792 RLU
Time 20.797 s
  RLU: -23.002 RLU
Time 22.797 s
  RLU: -57.7927 RLU
Time 24.797 s
  RLU: -48.9168 RLU
Time 26.797 s
  RLU: -17.0044 RLU
Time 28.797 s
  RLU: 22.9392 RLU
Time 30.797 s
  RLU: 32.9758 RLU
Time 32.797 s
  RLU: 53.0645 RLU
Time 34.797 s
  RLU: 83.8222 RLU
Time 36.797 s
  RLU: 93.8063 RLU
Time 38.797 s
  RLU: 138.967 RLU
Time 40.797 s
  RLU: 140.665 RLU
Time 42.797 s
  RLU: 165.846 RLU
Time 44.797 s
  RLU: 192.868 RLU
Time 46.797 s
  RLU: 190.046 RLU
Time 48.797 s
  RLU: 199.412 RLU
Time 50.797 s
  RLU: 213.089 RLU
Time 52.797 s
  RLU: 215.082 RLU
Time 54.797 s
  RLU: 250.612 RLU
Time 56.797 s
  RLU: 250.502 RLU
Time 58.797 s
  RLU: 257.511 RLU
Time 60.797 s
  RLU: 256.774 RLU
Time 62.797 s
  RLU: 238.682 RLU
Time 64.797 s
  RLU: 249.009 RLU
Time 66.797 s
  RLU: 305.929 RLU
Time 68.797 s
  RLU: 280.306 RLU
Time 70.797 s
  RLU: 276.637 RLU
Time 72.797 s
  RLU: 284.565 RLU
Time 74.797 s
  RLU: 263.421 RLU
Time 76.797 s
  RLU: 265 RLU
Time 78.797 s
  RLU: 262.578 RLU
Time 80.797 s
  RLU: 288.384 RLU
Time 82.797 s
  RLU: 280.368 RLU
Time 84.797 s
  RLU: 274.722 RLU
Time 86.797 s
  RLU: 270.305 RLU
Time 88.797 s
  RLU: 275.266 RLU
Time 90.797 s
  RLU: 279.283 RLU
Time 92.797 s
  RLU: 261.98 RLU
Time 94.797 s
  RLU: 257.248 RLU
Time 96.797 s
  RLU: 285.43 RLU
Time 98.797 s
  RLU: 259.515 RLU
Time 100.797 s
  RLU: 270.732 RLU
Time 102.797 s
  RLU: 264.325 RLU
Time 104.797 s
  RLU: 245.741 RLU
Time 106.797 s
  RLU: 235.309 RLU
Time 108.797 s
  RLU: 255.707 RLU
Time 110.797 s
  RLU: 240.509 RLU
Time 112.797 s
  RLU: 233.706 RLU
Time 114.797 s
  RLU: 230.518 RLU
Time 116.797 s
  RLU: 242.495 RLU
Time 118.797 s
  RLU: 239.456 RLU
Time 120.797 s
  RLU: 255.452 RLU
Time 122.797 s
  RLU: 242.932 RLU
Time 124.797 s
  RLU: 218.082 RLU
Time 126.797 s
  RLU: 235.026 RLU
Time 128.797 s
  RLU: 232.943 RLU
Time 130.797 s
  RLU: 235.505 RLU
Time 132.797 s
  RLU: 229.818 RLU
Time 134.797 s
  RLU: 212.202 RLU
Time 136.797 s
  RLU: 197.953 RLU
